Our source for the EC50 values is patent US10201531B2, “Indazolyl-oxo-isothiazole compounds” (MOCHIDA PHARMACEUTICAL CO., LTD., priority 2015, dated 2019).

The test system of this assay is Nrf2. In words: Evaluation of Nrf2 activation ability (Nrf2d-LacZ / Keap1 HEK293 reporter, Beta-Glo luminescence). The settings on record: Pharmacological Test Example 1, rated A/B/C. Type of assay: cell-based, human. The method in brief:
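HEK293 cells stably expressing a human Nrf2 degron–LacZ fusion plus human Keap1 were exposed to compound for 3 h at 37° C. Reporter β-galactosidase was read by Beta-Glo luminescence after 1 h at RT. Activation is given as % of the signal with 100 nM CDDO-Im.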
What is called EC50 is the midpoint of the concentration-response curve. The low end stands for an effect from little substance, the high end for a need for much substance. In turn, `COc1ccc(-c2ccc(-c3cnn(-c4cc(O)n[s+]4[O-])c3)cn2)cn1` (centres unmarked) [Example 444] gave an EC50 of less than 1000 nM. The result for `[O-][s+]1nc(O)cc1-n1cc2cc(OCc3cccnc3)ccc2n1` (centres unmarked) [Example 445] reads 1000 to 5000 nM. `COc1cc(-c2ccc(-c3cnn(-c4cc(O)n[s+]4[O-])c3)cn2)ccn1` (centres unmarked) [Example 446]: the EC50 is less than 1000 nM.

As to `COc1ncccc1-c1ccc(-c2cnn(-c3cc(O)n[s+]3[O-])c2)cn1` (centres unmarked) [Example 447], the EC50 was less than 1000 nM. Take `[O-][s+]1nc(O)cc1-n1cc(CCc2ccc(Cl)nc2)cn1` (centres unmarked) [Example 452]: the EC50 was in the range of 1000 to 5000 nM. Consider `COc1nc(-c2ccnc(N3CCCC3)c2)ccc1-c1cnn(-c2cc(O)n[s+]2[O-])c1` (centres unmarked) [Example 454], for which the EC50 was less than 1000 nM. `CN(c1ccc(-c2cnn(-c3cc(O)n[s+]3[O-])c2)cn1)C1CCOCC1` (centres unmarked) [Example 459] yielded an EC50 of 1000 to 5000 nM.

Molecule `CN1CCOc2cc(-c3ccc(CCc4cnn(-c5cc(O)n[s+]5[O-])c4)cn3)cnc21` (centres unmarked) [Example 461] gave an EC50 of 1000 to 5000 nM.
